Reference: article PMC6001238, “Iterative Chemical Engineering of Vancomycin Leads to Novel Vancomycin Analogs With a High in Vitro Therapeutic Index” (Frontiers in Microbiology, 2018)
In brackets after ≈: the same amount, converted by molar mass.

Columns and labels:
[1] = tested on: MRSA KS6; assay: MIC, broth microdilution, MRSA KS6; type: cell-based, Staphylococcus aureus; settings: for MIC-fold improvement vs. vancomycin: MRSA KS6, ratio of MIC of vancomycin and MIC of analogue; for MIC: Staphylococcus aureus MRSA KS6, read-out: MIC
Outline: (§1)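 Following CLSI antimicrobial susceptibility standards, organisms were tested by broth microdilution. Controls comprised ultrapure water plus broth left uninoculated. For a single condition, 10 μM vancomycin (final) accompanied the analog or control agent.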

[2] = tested on: human T-lymphocyte (CEM) cells; assay: Cytostatic activity, CEM cell proliferation; type: cell-based; settings: mean ± SD of three experiments; highest concentration tested 250 µM; 3 days; read-out: Toxicity (IC50) CEM
Outline: (§2)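 Readout: Coulter cell number after drug exposure at 37°C. Durations differ by line (L1210 2 days; CEM 3 days; HeLa 4 days). Stock suspension 300,000–500,000 cells/mL, diluted by mixing with compound. Endpoint: IC50 vs negative control.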

[3] = tested on: Murine leukemia (L1210) cells; assay: Cytostatic activity, L1210 cell proliferation; type: cell-based; settings: mean ± SD of three experiments; highest concentration tested 250 µM; 2 days; read-out: Toxicity (IC50) L1210
Outline: as §2

[4] = tested on: E. faecalis VRE 37; assay: MIC, broth microdilution, vancomycin-resistant E. faecalis VRE 37 (VanA); type: cell-based, Enterococcus faecalis; settings: for MIC: Enterococcus faecalis VRE 37 (vancomycin-resistant), read-out: MIC; for MIC-fold improvement vs. vancomycin: VRE 37, ratio of MIC of vancomycin and MIC of analogue
Outline: as §1

[5] = tested on: human cervix carcinoma (HeLa) cells; assay: Cytostatic activity, HeLa cell proliferation; type: cell-based; settings: mean ± SD of three experiments; highest concentration tested 250 µM; 4 days; read-out: Toxicity (IC50) HeLa
Outline: as §2

[6] = tested on: E. faecalis VRE 29; assay: MIC, broth microdilution, vancomycin-resistant E. faecalis VRE 29 (VanA); type: cell-based, Enterococcus faecalis; settings: for MIC: Enterococcus faecalis VRE 29 (vancomycin-resistant), read-out: MIC; for MIC-fold improvement vs. vancomycin: VRE 29, ratio of MIC of vancomycin and MIC of analogue
Outline: as §1

[7] = tested on: S. aureus VISA/HIP5827; assay: MIC, broth microdilution, vancomycin-intermediate S. aureus VISA HIP5827; type: cell-based, Staphylococcus aureus; settings: for MIC: Staphylococcus aureus VISA/HIP5827, read-out: MIC; for MIC-fold improvement vs. vancomycin: VISA/HIP5827, ratio of MIC of vancomycin and MIC of analogue
Outline: as §1

[8] = tested on: MRSA KS2; assay: MIC, broth microdilution, MRSA KS2; type: cell-based, Staphylococcus aureus; settings: for MIC-fold improvement vs. vancomycin: MRSA KS2, ratio of MIC of vancomycin and MIC of analogue; for MIC: Staphylococcus aureus MRSA KS2, read-out: MIC
Outline: as §1

[9] = tested on: S. aureus VSSA (ATCC 6538); assay: MIC, broth microdilution, vancomycin-sensitive S. aureus (VSSA/MSSA, ATCC 6538); type: cell-based, Staphylococcus aureus; settings: for MIC: Staphylococcus aureus VSSA, read-out: MIC; for MIC-fold improvement vs. vancomycin: VSSA, ratio of MIC of vancomycin and MIC of analogue
Outline: as §1

[10] = tested on: E. faecalis VRE 6; assay: MIC, broth microdilution, vancomycin-resistant E. faecalis VRE 6 (VanA); type: cell-based, Enterococcus faecalis; settings: for MIC: Enterococcus faecalis VRE 6 (vancomycin-resistant), read-out: MIC; for MIC-fold improvement vs. vancomycin: VRE 6, ratio of MIC of vancomycin and MIC of analogue
Outline: as §1

[11] = tested on: L1210, CEM and HeLa cell lines; assay: Cytostatic activity, average or summary over L1210, CEM and HeLa; type: cell-based; settings: average of L1210, CEM and HeLa; read-out: Toxicity (IC50) Average
Outline: as §2

[12] = tested on: S. aureus VRSA; assay: MIC, broth microdilution, vancomycin-resistant S. aureus (VRSA); type: cell-based, Staphylococcus aureus; settings: for MIC: Staphylococcus aureus VRSA, read-out: MIC; for MIC-fold improvement vs. vancomycin: VRSA, ratio of MIC of vancomycin and MIC of analogue
Outline: as §1

[13] = tested on: E. faecalis VSE 1; assay: MIC, broth microdilution, vancomycin-sensitive E. faecalis (VSE 1); type: cell-based, Enterococcus faecalis; settings: for MIC: Enterococcus faecalis VSE 1 (vancomycin-sensitive), read-out: MIC; for MIC-fold improvement vs. vancomycin: VSE 1, ratio of MIC of vancomycin and MIC of analogue
Outline: as §1

[14] = tested on: MRSA KS1; assay: MIC, broth microdilution, MRSA KS1; type: cell-based, Staphylococcus aureus; settings: for MIC-fold improvement vs. vancomycin: MRSA KS1, ratio of MIC of vancomycin and MIC of analogue; for MIC: Staphylococcus aureus MRSA KS1, read-out: MIC
Outline: as §1

[15] = tested on: E. faecalis VRE 53; assay: MIC, broth microdilution, vancomycin-resistant E. faecalis VRE 53 (VanA); type: cell-based, Enterococcus faecalis; settings: for MIC: Enterococcus faecalis VRE 53 (vancomycin-resistant), read-out: MIC; for MIC-fold improvement vs. vancomycin: VRE 53, ratio of MIC of vancomycin and MIC of analogue
Outline: as §1

[16] = tested on: MRSA KS89; assay: MIC, broth microdilution, MRSA KS89; type: cell-based, Staphylococcus aureus; settings: for MIC-fold improvement vs. vancomycin: MRSA KS8, ratio of MIC of vancomycin and MIC of analogue; for MIC: Staphylococcus aureus MRSA KS8, read-out: MIC
Outline: as §1

Compound | MIC-fold improvement vs. vancomycin [1] | MIC [1] | MIC [4] | MIC [6] | MIC-fold improvement vs. vancomycin [6] | MIC [7] | MIC-fold improvement vs. vancomycin [7] | MIC-fold improvement vs. vancomycin [8] | MIC [8] | MIC [9] | MIC-fold improvement vs. vancomycin [9] | MIC [10] | MIC-fold improvement vs. vancomycin [10] | MIC-fold improvement vs. vancomycin [12] | MIC [13] | MIC-fold improvement vs. vancomycin [13] | IC50 [2] | IC50 [3] | IC50 [5] | IC50 [11] | further results
CN[C@H](CC(C)C)C(=O)N[C@H]1C(=O)N[C@@H](CC(N)=O)C(=O)N[C@H]2C(=O)N[C@H]3C(=O)N[C@H](C(=O)N[C@H](C(=O)NCC(=O)Nc4cc(C)ccc4O)c4cc(O)cc(O)c4-c4cc3ccc4O)[C@H](O)c3ccc(c(Cl)c3)Oc3cc2cc(c3O[C@@H]2O[C@H](CO)[C@@H](O)[C@H](O)[C@H]2O[C@H]2C[C@](C)(N)[C@H](O)[C@H](C)O2)Oc2ccc(cc2Cl)[C@H]1O [Vanc-18] | 1 | 0.78 µM (≈ 1.26 µg/mL) | 50 µM (≈ 80.6 µg/mL) | 25 µM (≈ 40.3 µg/mL) | 16 | 0.78 µM (≈ 1.26 µg/mL) | 8 | 2 | 0.39 µM (≈ 0.628 µg/mL) | 0.78 µM (≈ 1.26 µg/mL) | 1 | 12.5 µM (≈ 20.1 µg/mL) | 16 | 4 | 1.56 µM (≈ 2.51 µg/mL) | 1 | > 250 µM | > 250 µM | > 250 µM | > 250 µM | MIC-fold improvement vs. vancomycin [4]: 8; MIC [12]: 25 µM (≈ 40.3 µg/mL); MIC-fold improvement vs. vancomycin [14]: 1; MIC [14]: 0.78 µM (≈ 1.26 µg/mL); MIC [15]: 25 µM (≈ 40.3 µg/mL); MIC-fold improvement vs. vancomycin [15]: 16; MIC-fold improvement vs. vancomycin [16]: 1; MIC [16]: 0.78 µM (≈ 1.26 µg/mL)
CN[C@H](CC(C)C)C(=O)N[C@H]1C(=O)N[C@@H](CC(N)=O)C(=O)N[C@H]2C(=O)N[C@H]3C(=O)N[C@H](C(=O)N[C@H](C(=O)NCCNC(=O)/C=C/c4ccc(Cl)cc4)c4cc(O)cc(O)c4-c4cc3ccc4O)[C@H](O)c3ccc(c(Cl)c3)Oc3cc2cc(c3O[C@@H]2O[C@H](CO)[C@@H](O)[C@H](O)[C@H]2O[C@H]2C[C@](C)(N)[C@H](O)[C@H](C)O2)Oc2ccc(cc2Cl)[C@H]1O [Vanc-20] | 2 | 0.39 µM (≈ 0.646 µg/mL) | 12.5 µM (≈ 20.7 µg/mL) | 6.25 µM (≈ 10.3 µg/mL) | 64 | 0.39 µM (≈ 0.646 µg/mL) | 16 | 4 | 0.20 µM (≈ 0.331 µg/mL) | 0.39 µM (≈ 0.646 µg/mL) | 2 | 1.56 µM (≈ 2.58 µg/mL) | 128 | 32 | 0.39 µM (≈ 0.646 µg/mL) | 4 | 146 ± 24 µM | 138 ± 5 µM | 80 ± 3 µM | 121 µM | MIC [12]: 3.13 µM (≈ 5.18 µg/mL); MIC-fold improvement vs. vancomycin [14]: 2; MIC [14]: 0.39 µM (≈ 0.646 µg/mL); MIC [15]: 12.5 µM (≈ 20.7 µg/mL); MIC-fold improvement vs. vancomycin [15]: 32; MIC-fold improvement vs. vancomycin [16]: 2; MIC [16]: 0.39 µM (≈ 0.646 µg/mL)
CN[C@H](CC(C)C)C(=O)N[C@H]1C(=O)N[C@@H](CC(N)=O)C(=O)N[C@H]2C(=O)N[C@H]3C(=O)N[C@H](C(=O)N[C@H](C(=O)NCCNC(=O)/C=C/c4cccc(OC)c4)c4cc(O)cc(O)c4-c4cc3ccc4O)[C@H](O)c3ccc(c(Cl)c3)Oc3cc2cc(c3O[C@@H]2O[C@H](CO)[C@@H](O)[C@H](O)[C@H]2O[C@H]2C[C@](C)(N)[C@H](O)[C@H](C)O2)Oc2ccc(cc2Cl)[C@H]1O [Vanc-23] | 1 | 0.78 µM (≈ 1.29 µg/mL) | 25 µM (≈ 41.3 µg/mL) | 12.5 µM (≈ 20.6 µg/mL) | 32 | 0.78 µM (≈ 1.29 µg/mL) | 8 | 2 | 0.39 µM (≈ 0.644 µg/mL) | 0.39 µM (≈ 0.644 µg/mL) | 2 | 3.13 µM (≈ 5.17 µg/mL) | 64 | 16 | 0.39 µM (≈ 0.644 µg/mL) | 4 | > 250 µM | > 250 µM | > 250 µM | > 250 µM | MIC-fold improvement vs. vancomycin [4]: 16; MIC [12]: 6.25 µM (≈ 10.3 µg/mL); MIC-fold improvement vs. vancomycin [14]: 1; MIC [14]: 0.78 µM (≈ 1.29 µg/mL); MIC [15]: 25 µM (≈ 41.3 µg/mL); MIC-fold improvement vs. vancomycin [15]: 16; MIC-fold improvement vs. vancomycin [16]: 1; MIC [16]: 0.78 µM (≈ 1.29 µg/mL)

Second part, led by results:

MIC-fold improvement vs. vancomycin [1] | MIC [1] | MIC [4] | MIC [6] | MIC-fold improvement vs. vancomycin [6] | MIC [7] | MIC-fold improvement vs. vancomycin [7] | MIC-fold improvement vs. vancomycin [8] | MIC [8] | MIC [9] | MIC-fold improvement vs. vancomycin [9] | MIC [10] | MIC-fold improvement vs. vancomycin [10] | MIC-fold improvement vs. vancomycin [12] | MIC [13] | MIC-fold improvement vs. vancomycin [13] | Compound | IC50 [2] | IC50 [3] | IC50 [5] | IC50 [11] | further results
0.5 | 1.56 µM (≈ 2.53 µg/mL) | 25 µM (≈ 40.6 µg/mL) | 12.5 µM (≈ 20.3 µg/mL) | 32 | 3.13 µM (≈ 5.08 µg/mL) | 2 | 1 | 0.78 µM (≈ 1.27 µg/mL) | 0.78 µM (≈ 1.27 µg/mL) | 1 | 3.13 µM (≈ 5.08 µg/mL) | 64 | 8 | 1.56 µM (≈ 2.53 µg/mL) | 1 | CCc1cccc(C)c1NC(=O)CNC(=O)C1NC(=O)C2NC(=O)C(NC(=O)C3NC(=O)C(CC(N)=O)NC(=O)C(NC(=O)C(CC(C)C)NC)C(O)c4ccc(c(Cl)c4)Oc4cc3cc(c4OC3OC(CO)C(O)C(O)C3OC3CC(C)(N)C(O)C(C)O3)Oc3ccc(cc3Cl)C2O)c2ccc(O)c(c2)-c2c(O)cc(O)cc21 (centres unmarked) [Vanc-19] | > 250 µM | > 250 µM | 63 ± 5 µM | 188 µM | MIC-fold improvement vs. vancomycin [4]: 16; MIC [12]: 12.5 µM (≈ 20.3 µg/mL); MIC-fold improvement vs. vancomycin [14]: 1; MIC [14]: 0.78 µM (≈ 1.27 µg/mL); MIC [15]: 25 µM (≈ 40.6 µg/mL); MIC-fold improvement vs. vancomycin [15]: 16; MIC-fold improvement vs. vancomycin [16]: 1; MIC [16]: 0.78 µM (≈ 1.27 µg/mL)
2 | 0.39 µM (≈ 0.65 µg/mL) | 12.5 µM (≈ 20.8 µg/mL) | 6.25 µM (≈ 10.4 µg/mL) | 64 | 0.39 µM (≈ 0.65 µg/mL) | 16 | 2 | 0.39 µM (≈ 0.65 µg/mL) | 0.39 µM (≈ 0.65 µg/mL) | 2 | 3.13 µM (≈ 5.21 µg/mL) | 64 | 32 | 0.20 µM (≈ 0.333 µg/mL) | 8 | CNC(CC(C)C)C(=O)NC1C(=O)NC(CC(N)=O)C(=O)NC2C(=O)NC3C(=O)NC(C(=O)NC(C(=O)NCCCNC(=O)c4cc5ccccc5s4)c4cc(O)cc(O)c4-c4cc3ccc4O)C(O)c3ccc(c(Cl)c3)Oc3cc2cc(c3OC2OC(CO)C(O)C(O)C2OC2CC(C)(N)C(O)C(C)O2)Oc2ccc(cc2Cl)C1O (centres unmarked) [Vanc-26] | > 250 µM | > 250 µM | 42 ± 23 µM | 181 µM | MIC-fold improvement vs. vancomycin [14]: 2; MIC [14]: 0.39 µM (≈ 0.65 µg/mL); MIC [15]: 25 µM (≈ 41.6 µg/mL); MIC-fold improvement vs. vancomycin [15]: 16; MIC-fold improvement vs. vancomycin [16]: 2; MIC [16]: 0.39 µM (≈ 0.65 µg/mL)
